Patent US7148204B2, “Antisense modulation of bcl-x expression” (Isis Pharmaceuticala, Inc., priority 1998, dated 2006)
In the oligonucleotide strings, read from the 5' end, every base follows the letter of its sugar. An asterisk marks phosphorothioate; unmarked linkages are phosphodiester. Other units and linkages are bracketed, terminal groups are in braces. A string of capitals states the bases alone. e = 2'-O-(2-methoxyethyl) (MOE); [5mC] = 5-methylcytosine; d = 2'-deoxy (DNA)

System: human bcl-x mRNA
Experiment: Northern blot analysis of bcl-x mRNA levels in A549 cells
Type: cell-based
Conditions: 200 nM chimeric oligonucleotide
Protocol: Eighteen hours after antisense treatment, cell monolayers were washed twice with cold PBS and lysed in 1 mL RNAZOL™ (TEL-TEST “B” Inc., Friendswood, Tex.). Total RNA was prepared following manufacturer's recommended protocols. Twenty micrograms of total RNA was fractionated by electrophoresis through 1.2% agarose gels containing 1.1% formaldehyde using a MOPS buffer system (AMRESCO, Inc. Solon, Ohio). RNA was transferred from the gel to HYBOND™-N+ nylon membranes (Amersham Pharmacia Biotech, Piscataway, N.J.) by overnight capillary transfer using a Northern/Southern Transfer buffer system (TEL-TEST “B” Inc., Friendswood, Tex.). RNA transfer was confirmed by UV visualization. Membranes were fixed by UV cross-linking using a STRATALINKER™ UV Crosslinker 2400 (Stratagene, Inc, La Jolla, Calif.).
Membranes were probed using QUICKHYB™ hybridization solution (Stratagene, La Jolla, Calif.) using manufacturer's recommendations for stringent conditions with an 822-base pair bcl-x specific probe prepared by PCR from bases 33–855 of human bcl-xl sequence (Boise et al., 1993, Cell 74:597–608; GenBank accession no. L20121). To normalize for variations in loading and transfer efficiency membranes were stripped and probed for glyceraldehyde-3-phosphate dehydrogenase (GAPDH) RNA (Clontech, Palo Alto, Calif.). Hybridized membranes were visualized and quantitated using a PHOSPHORIMAGER™ and IMAGEQUANT™ Software V3.3 (Molecular Dynamics, Sunnyvale, Calif.). Data was normalized to GAPDH levels in untreated controls.
Oligonucleotides were tested by Northern blot analysis as described in Example 14. Oligonucleotides were tested in A549 cells at a concentration of 400 nM. The results are Table 2:
Oligonucleotides were tested by Northern blot analysis as described in Example 14. Chimeric oligonucleotides were in A549 cells at a concentration of 200 nM. Where present, “N.D.” indicates “not determined”.

Q: What does the source list for “16014 (antisense eA*eG*e[5mC]*eG*eT*dT*dC*dC*dT*dG*dG*dC*dC*dC*dT*eT*eT*e[5mC]*eG*eG) [compound 16014]”?
A: % CONTROL (bcl-x mRNA levels): 22%; % INHIB (bcl-x mRNA levels): 78%

Q: What does the source list for “15999 (antisense eT*e[5mC]*e[5mC]*e[5mC]*eG*dG*dT*dT*dG*dC*dT*dC*dT*dG*dA*eG*eA*e[5mC]*eA*eT) [compound 15999]”?
A: % CONTROL (bcl-x mRNA levels): 4%; % INHIB (bcl-x mRNA levels): 96%

Q: Which results are given for “16004 (antisense e[5mC]*eT*eT*eG*e[5mC]*dT*dT*dT*dA*dC*dT*dG*dC*dT*dG*e[5mC]*e[5mC]*eA*eT*eG) [compound 16004]”?
A: % CONTROL (bcl-x mRNA levels): 5%; % INHIB (bcl-x mRNA levels): 95%

Q: How did the “% CONTROL (bcl-x mRNA levels)” value turn out when “16007 (antisense eT*eA*e[5mC]*e[5mC]*e[5mC]*dC*dA*dT*dC*dC*dC*dG*dG*dA*dA*eG*eA*eG*eT*eT) [compound 16007]” was run?
A: 31%

Q: What about the “% INHIB (bcl-x mRNA levels)” value of the same substance?
A: 69%

Q: “16006 (antisense e[5mC]*eT*eG*eT*eT*dC*dA*dA*dA*dG*dC*dT*dC*dT*dG*eA*eT*eA*eT*eG) [compound 16006]” was tested. Which “% CONTROL (bcl-x mRNA levels)” value did it give?
A: 28%

Q: What about the “% INHIB (bcl-x mRNA levels)” value of the same substance?
A: 72%

Q: Which “% CONTROL (bcl-x mRNA levels)” value does the source give for “16000 (antisense eG*eG*eG*e[5mC]*e[5mC]*dT*dC*dA*dG*dT*dC*dC*dT*dG*dT*eT*e[5mC]*eT*e[5mC]*eT) [compound 16000]” here?
A: 4%

Q: And the “% INHIB (bcl-x mRNA levels)” value?
A: 96%

Q: “16005 (antisense eG*e[5mC]*e[5mC]*eG*eG*dT*dA*dC*dC*dG*dC*dA*dG*dT*dT*e[5mC]*eA*eA*eA*e[5mC]) [compound 16005]” was tested. Which “% CONTROL (bcl-x mRNA levels)” value did it give?
A: 17%

Q: What about the “% INHIB (bcl-x mRNA levels)” value of the same substance?
A: 83%

Q: What does the source list for “16001 (antisense eT*e[5mC]*e[5mC]*eA*eT*dC*dT*dC*dC*dG*dA*dT*dT*dC*dA*eG*eT*e[5mC]*e[5mC]*e[5mC]) [compound 16001]”?
A: % CONTROL (bcl-x mRNA levels): 17%; % INHIB (bcl-x mRNA levels): 83%

Q: Which “% CONTROL (bcl-x mRNA levels)” value does the source give for “15998 (antisense eT*eA*eA*eT*eA*dG*dG*dG*dA*dT*dG*dG*dG*dC*dT*e[5mC]*eA*eA*e[5mC]*e[5mC]) [compound 15998]” here?
A: 13%

Q: What about the “% INHIB (bcl-x mRNA levels)” value of the same substance?
A: 87%

Same assay, conditions: 400 nM oligonucleotide

Q: Which results are given for “11227 (antisense dA*dA*dA*dG*dT*dC*dA*dA*dC*dC*dA*dC*dC*dA*dG*dC*dT*dC*dC*dC) [compound 11227]”?
A: % CONTROL (bcl-x mRNA levels): 10%; % INHIB (bcl-x mRNA levels): 90%

Q: “11993 (antisense dT*dC*dA*dT*dT*dC*dA*dC*dT*dA*dC*dC*dT*dG*dT*dT*dC*dA*dA*dA) [compound 11993]” was tested. Which “% CONTROL (bcl-x mRNA levels)” value did it give?
A: 142%

Q: Which “% CONTROL (bcl-x mRNA levels)” value does the source give for “11230 (antisense dG*dA*dA*dG*dG*dG*dA*dG*dA*dG*dA*dA*dA*dG*dA*dG*dA*dT*dT*dC) [compound 11230]” here?
A: 135%

Q: What does the source list for “11226 (antisense dA*dT*dT*dC*dA*dG*dT*dC*dC*dC*dT*dT*dC*dT*dG*dG*dG*dG*dC*dC) [compound 11226]”?
A: % CONTROL (bcl-x mRNA levels): 34%; % INHIB (bcl-x mRNA levels): 66%

Q: For “11228 (antisense dC*dC*dG*dG*dT*dT*dG*dC*dT*dC*dT*dG*dA*dG*dA*dC*dA*dT*dT*dT) [compound 11228]”, which “% CONTROL (bcl-x mRNA levels)” value is on record?
A: 31%

Q: What about the “% INHIB (bcl-x mRNA levels)” value of the same substance?
A: 69%

Q: How did the “% CONTROL (bcl-x mRNA levels)” value turn out when “11225 (antisense dC*dA*dG*dT*dG*dG*dC*dT*dC*dC*dA*dT*dT*dC*dA*dC*dC*dG*dC*dG) [compound 11225]” was run?
A: 25%

Q: What about the “% INHIB (bcl-x mRNA levels)” value of the same substance?
A: 75%

Same assay, conditions: dose-response, Northern blot

Q: “CGGGTTCTCCTGGTGGCAAT (all phosphorothioate, sugars by position and methylation of C not given here; further chemistry not fully specified) [ISIS 11219]” was tested. Which IC50 did it give?
A: ~250 nM
